Assay [1] deals with protein bands between 25 kD to 38 kD. Briefly: Competitive binding assay against probe PPd (in-gel fluorescence). The note with it: 20 μM concentration; bands 25 kD to 38 kD.
The subject of a further assay is HT-1080 cells. Briefly: Cytotoxicity (methylene blue cell viability), HT-1080. Conditions: Homo sapiens. In kind it is cell-based, human. The method, then:
(§1) Having synthesized the CETZOLE analogs, their cytotoxic activity was evaluated. […] NCI-H522 RV-GFP is the corresponding control with RV-GFP tag, but without SLC7A11 overexpression. […] The cytotoxicity screening was conducted as described previously.
(§2) Cell lines were cultured in a humidified atmosphere containing 10% CO2 in Dulbecco's modified Eagle's medium (Mediatech, Inc) supplemented with 10% fetal bovine serum (Atlanta Biologicals). Cell types used MEFs, HT1080 (human fibrosarcoma cells), NARF2 (osteosarcoma), WI-38 (human embryonic lung fibroblast), MDA MB 231 (breast cancer), HCT-116 (human colon), and NCI-H522 (Non-Small Cell Lung Cancer) cell lines. To determine viability throughout these examples, 5,000 cells were plated per well of a 96-well plate and drugs were added 1 day later. Cells were stained 1 to 3 days later with a saturated solution of methylene blue in 50% ethanol. Plates were rinsed and retained dye was quantified by spectrophotometry. Absorbance was normalized to DMSO and given as 1 or 100% for cell viability. Results are representative of at least two independent experiments. Statistical significance was assessed using the Student's t test. All commercially available chemicals were obtained from Cayman Chemicals unless otherwise noted.

Another assay relates to NCI-H522 cells. Briefly: Cytotoxicity (methylene blue cell viability), NCI-H522. It counts as cell-based, human. The note with it: for IC50: Homo sapiens. The method, then: as §1, §2
For the next assay, the system named is MDA-MB-231 cells. Briefly: Cytotoxicity (methylene blue cell viability), MDA-MB-231. In kind it is cell-based. The note with it: Homo sapiens. The method, then: as §1, §2
For assay [2], the system named is NCI-H522 GFP-SLC7A11 #8 cells. Briefly: Cytotoxicity (methylene blue cell viability), NCI-H522 clone overexpressing GFP-SLC7A11. In kind it is cell-based, human. The note with it: Homo sapiens; Table 1; NCI-H522 clone overexpressing GFP-tagged SLC7A11; read-out: Half maximal inhibitory concentration (IC50), NCI-H522 GFP-SCL7A11 #8. The method, then:
as §1, §2

Another assay relates to NCI-H522 RV-GFP cells. Briefly: Cytotoxicity (methylene blue cell viability), NCI-H522 RV-GFP control clone. In kind it is cell-based, human. Conditions: Homo sapiens, NCI-H522; Table 1; control clone with RV-GFP tag; read-out: Half maximal inhibitory concentration (IC50), NCI-H522 Rv-GFP. The method, then:
as §1, §2

Assay [3] has as its system NCI-H522, NCI-H522 GFP-SLC7A11 #8, NCI-H522 RV-GFP, HT-1080, NARF2 and MDA-MB 231 cell lines. Briefly: Cytotoxicity screening across the tested cell lines. In kind it is cell-based. The note with it: summary over all tested cell lines; read-out: IC50 values against the tested cell lines. The method, then:
as §1, §2

Another assay deals with NARF2 cells. Briefly: Cytotoxicity (methylene blue cell viability), NARF2. It counts as cell-based, human. Conditions: Homo sapiens; Table 1; NARF2 osteosarcoma cells; read-out: Half maximal inhibitory concentration (IC50), NARF2. The method, then:
as §1, §2

Assay [4] has as its system NCI-H522 and HT-1080 cancer cell lines, WI38 and MEFs normal cell lines. Briefly: Selective cytotoxicity assay at a single concentration. In kind it is cell-based. Further details: dose or concentration left out as unconfirmed. The note with it: NCI-H522, HT-1080, WI38, MEFs. The method, then: Overall, WI38 cells were the most tolerant to the treatment, whereas MEF cells were partially tolerant and relatively less sensitive than both NCI-H522 and HT-1080 cells. To determine cytotoxicity at a therapeutically more relevant concentration, cells were treated at a single concentration of […] (FIG. 12).
as §2, with “noted. Compound CETZOLE 1 and the analogs were synthesized as highlighted.” for “noted.”

In assay [5] the test system is MEFs (Mouse Embryonic Fibroblasts). Briefly: Cytotoxicity on normal cell line MEFs. It counts as cell-based. The note with it: Fibroblast; Table 2; Mouse Embryonic Fibroblasts; read-out: Half maximal inhibitory concentration (IC50), Normal Cell Line Mefs. The method, then: (§3) To determine cytotoxicity at a therapeutically more relevant concentration, cells were treated at a single concentration of […] (FIG. 12).
as §2

A further assay deals with WI38 cells. Briefly: Cytotoxicity on normal cell line WI38. It counts as cell-based, human. The note with it: Homo sapiens, WI-38; Table 2; lung tissue fibroblast; read-out: Half maximal inhibitory concentration (IC50), Normal Cell Line WI38. The method, then:
as §3, §2

The mark [6] stands for this setting: HT-1080, Table 3, probes and negative controls, read-out: IC50, HT-1080.
Where [7] appears, read: NCI-H522, Table 3, probes and negative controls, read-out: IC50, NCI-H522.
Where [8] appears, read: MDA-MB-231, Table 3, probes and negative controls, read-out: IC50, MDA-MB-231.
Where [9] appears, read: Table 1, HT-1080 fibrosarcoma cell line, read-out: Half maximal inhibitory concentration (IC50), HT-1080.
The mark [10] stands for this setting: Table 1, NCI-H522 cancer cell line, read-out: Half maximal inhibitory concentration (IC50), NCI-H522.
[11] abbreviates: Table 1, MDA-MB-231 breast cancer cell line, read-out: Half maximal inhibitory concentration (IC50), MDA-MB-231.
[12] abbreviates: HT-1080, Table 2, read-out: Half maximal inhibitory concentration (IC50), Cancer Cell Line HT1080.
Setting [13] is: NCI-H522, Table 2, read-out: Half maximal inhibitory concentration (IC50), Cancer Cell Line NCI-H522.

Experimental findings from patent US20260199297A1, “FERROPTOSIS INDUCERS TO TREAT CANCER” (The University of Toledo, priority 2022, published 2026) are described below.

Read-outs that look alike come from different tables or passages of the source. A value given as a limit tells only on which side of the number the result lay.

Consider `Cc1onc(C(=O)N2CCN(C(c3ccc(Cl)cc3)c3ccc(Cl)cc3)CC2)c1[N+](=O)[O-]` [ML210], for which the “competition of PPd-labelled protein bands by known ferroptosis inducers” value in assay [1] was “compete out the same protein bands”.

Take `CCN(CC)c1ccc2cc(C(=O)NC3CCC(c4csc(Br)n4)=C3C)c(=O)oc2c1` (stereo not shown) [NPa, N-(3-(2-Bromothiazol-4-yl)-2-methylcyclopent-2-en-1-yl)-7-(diethylamino)-2-oxo-2H-chromene-3-carboxamide]: the IC50 in the assay with HT-1080 cells (setting [6]), with NCI-H522 cells (setting [7]) and with MDA-MB-231 cells (setting [8]) was above 20 µM in each case.

Take `CC1=C(c2csc(Br)n2)CCC1NC(=O)CCCC[C@@H]1SC[C@@H]2NC(=O)N[C@@H]21` (stereo partly drawn) [NPb, N-(3-(2-Bromothiazol-4-yl)-2-methylcyclopent-2-en-1-yl)-5-((3aS,4S,6aR)-2-oxohexahydro-1H-thieno[3,4-d]imidazol-4-yl)pentanamide]: the IC50 in the assay on HT-1080 cells (setting [6]), in the assay with NCI-H522 cells (setting [7]) and in the assay with MDA-MB-231 cells (setting [8]) was above 20 µM throughout.

For the compound `C#CCO/N=C1\CC(c2csc(Br)n2)=C(C)C1O` (stereo not shown) [NPd, 4-(2-Bromothiazol-4-yl)-2-hydroxy-3-methylcyclopent-3-en-1-one O-prop-2-yn-1-yl oxime], the IC50 in the assay with HT-1080 cells (setting [6]), in the assay on NCI-H522 cells (setting [7]) and in the assay with MDA-MB-231 cells (setting [8]) was above 20 µM each time.

Turning to `C#CCCC(=O)Nc1ccc(C(=O)c2ccc(NC(=O)CO/N=C3\CC(c4csc(Br)n4)=C(C)C3O)cc2)cc1` (stereo not shown) [NPe, (E)-N-(4-(4-(2-(((4-(2-Bromothiazol-4-yl)-2-hydroxy-3-methylcyclopent-3-en-1-ylidene)amino)oxy)acetamido)benzoyl)phenyl)pent-4-ynamide], the IC50 in the assay with HT-1080 cells (setting [6]), with NCI-H522 cells (setting [7]) and in the assay on MDA-MB-231 cells (setting [8]) was above 20 µM throughout.

As for `C#Cc1nc(C2=C(C)C(NC(=O)c3cc4ccc(N(CC)CC)cc4oc3=O)CC2)cs1` (stereo not shown) [PPa, 7-(Diethylamino)-N-(3-(2-ethynylthiazol-4-yl)-2-methylcyclopent-2-en-1-yl)-2-oxo-2H-chromene-3-carboxamide], the IC50 stood at 4.58 ± 0.87 µM with HT-1080 cells (setting [6]); 4.56 ± 1.43 µM with NCI-H522 cells (setting [7]); 4.56 ± 1.43 µM in the assay with NCI-H522 cells (cell line not given, value matches NCI-H522 of Table 3, read-out: IC50 (moderate cytotoxicity of PPa)); 1.2 ± 1.03 µM in the assay on MDA-MB-231 cells (setting [8]).

In the case of `C#Cc1nc(C2=C(C)C(NC(=O)CCCC[C@@H]3SC[C@@H]4NC(=O)N[C@@H]43)CC2)cs1` (stereo partly drawn) [PPb, N-(3-(2-Ethynylthiazol-4-yl)-2-methylcyclopent-2-en-1-yl)-5-((3aS,4S,6aR)-2-oxohexahydro-1H-thieno[3,4-d]imidazol-4-yl)pentanamide], the IC50 with HT-1080 cells (setting [6]) is 7.91 ± 1.9 µM; with NCI-H522 cells (setting [7]), 17.9 ± 3.98 µM; in the assay on NCI-H522 cells (NCI-H522, unit inferred, read-out: IC50 on NCI-H522 cell line), 17.9 ± 3.98 µM; in the assay with MDA-MB-231 cells (setting [8]), above 20 µM. Besides, in the assay with NCI-H522 cells (NCI-H522 cell line), the “activity relative to CETZOLE 1” value is recorded as “five-fold less active”.

Take `CC1=C(c2csc(Br)n2)CCC1O` (stereo not shown) [compound 13, 3-(2-Bromothiazol-4-yl)-2-methylcyclopent-2-en-1-ol]: the IC50 with HT-1080 cells (setting [6]), in the assay on NCI-H522 cells (setting [7]) and with MDA-MB-231 cells (setting [8]) was above 20 µM in each case.

`C#Cc1nc(C2=C(C)C(=O)/C(=N/O)C2)cs1` [compound 14, (E)-3-(2-Ethynylthiazol-4-yl)-5-(hydroxyimino)-2-methylcyclopent-2-en-1-one]: the IC50 in [2] was above 20 µM; in the assay on NCI-H522 RV-GFP cells, above 20 µM; in the assay with HT-1080 cells (setting [9]) it was 5.29 ± 2.6 µM; in [3] it was above 20 µM; in the assay on NCI-H522 cells (setting [10]) it was above 20 µM; in the assay on MDA-MB-231 cells (setting [11]), 8.05 ± 0.63 µM. In addition, in the assay on NARF2 cells, the IC50 is above 20 µM.

Consider `C#Cc1nc(C2=C(C)C(O)/C(=N/O)C2)cs1` (stereo not shown) [compound 19, (E)-4-(2-Ethynylthiazol-4-yl)-2-hydroxy-3-methylcyclopent-3-en-1-one oxime], for which the IC50 is above 20 µM in assay [2]; 5.55 ± 0.01 µM in the assay on NCI-H522 RV-GFP cells; 5.77 ± 0.67 µM in the assay on HT-1080 cells (setting [9]); 4.68 ± 1.03 µM with NCI-H522 cells (setting [10]); 6.57 ± 0.5 µM with MDA-MB-231 cells (setting [11]); above 20 µM in the assay with NARF2 cells.

As to `C#Cc1nc(C2=C(C)C(OC(=O)CC)/C(=N/OC(=O)CC)C2)cs1` (stereo not shown) [compound 20b, (E)-3-(2-Ethynylthiazol-4-yl)-2-methyl-5-((propionyloxy)imino)cyclopent-2-en-1-yl propionate], the IC50 in assay [2] is 2.06 ± 0.54 µM; in the assay with NCI-H522 RV-GFP cells, 0.59 ± 0.22 µM; in the assay with HT-1080 cells (setting [12]), 0.15 ± 0.02 µM; in the assay with HT-1080 cells (setting [9]) it was 0.15 ± 0.02 µM; in assay [5], 0.28 ± 0.04 µM; in the assay on NCI-H522 cells (setting [13]), 0.12 ± 0.06 µM. Besides, the IC50 in the assay on NCI-H522 cells (setting [10]) worked out at 0.12 ± 0.06 µM; with WI38 cells it was 2.52 ± 0.92 µM; in the assay with MDA-MB-231 cells (setting [11]) it was 0.18 ± 0.03 µM; in the assay with NARF2 cells, 13.4 ± 3.3 µM. For the same compound, in [4], the “cell death at a single concentration” value was “killed only the cancer cell lines NCI-H522 and HT-1080”.

For the compound `C#Cc1nc(C2=C(C)C(OC(=O)CCC)/C(=N/OC(=O)CCC)C2)cs1` (stereo not shown) [compound 20c, (E)-5-((Butyryloxy)imino)-3-(2-ethynylthiazol-4-yl)-2-methylcyclopent-2-en-1-yl butyrate], the IC50 in assay [2] was 1.93 ± 0.8 µM; in the assay with NCI-H522 RV-GFP cells, 0.28 ± 0.13 µM; in the assay on HT-1080 cells (setting [12]) it was 0.19 ± 0.09 µM; with HT-1080 cells (setting [9]), 0.19 ± 0.09 µM; in assay [5], 0.79 ± 0.04 µM; in the assay with NCI-H522 cells (setting [13]), 0.13 ± 0.09 µM. Moreover, the IC50 is 0.13 ± 0.09 µM in the assay on NCI-H522 cells (setting [10]), 1.19 ± 0.3 µM in the assay with WI38 cells, 0.83 ± 0.15 µM with MDA-MB-231 cells (setting [11]) and 5.95 ± 1.8 µM with NARF2 cells. Further, in assay [4], the “cell death at a single concentration” value was “killed only the cancer cell lines NCI-H522 and HT-1080”.

As for `C#Cc1nc(C2=C(C)C(O)/C(=N\OCc3ccccc3)C2)cs1` (stereo not shown) [compound 21, (Z)-4-(2-Ethynylthiazol-4-yl)-2-hydroxy-3-methylcyclopent-3-en-1-one O-benzyl oxime], the IC50 in assay [2] is 2.17 ± 1.5 µM; with NCI-H522 RV-GFP cells, 3.02 ± 1.7 µM; in the assay with HT-1080 cells (setting [9]) it was 0.93 ± 0.12 µM; with NCI-H522 cells (setting [10]), 1.18 ± 0.8 µM; with MDA-MB-231 cells (setting [11]), 13.4 ± 5.3 µM; with NARF2 cells, above 20 µM.

For the compound `O=C(O)c1cc(/N=N/c2ccc(S(=O)(=O)Nc3ccccn3)cc2)ccc1O` [sulfasalazine], the “competition of PPd-labelled protein bands by known ferroptosis inducers” value in assay [1] is “did not show any significant competition”.
